{
  "source": "patent US9567586B2",
  "about": "“EpCAM aptamer for detection of cancer stem cells” (DEAKIN UNIVERSITY, priority 2012, dated 2017)",
  "key": {"[1]": {"test_system": "MCF-7/ADR tumours", "assay": "CSC marker status in in vivo treated MCF-7/ADR tumours (flow cytometry)", "design": "species or system mice", "conditions": "treated 3 times in a week; 1 nmol PEG-chimera, 5 mg/kg doxorubicin; n=8", "procedure": "A 20-kDa PEG was attached to the 5′-end of siRNA-aptamer-chimera in order to extend its systemic circulation time. […] Day 2 after the last (third) treatment, tumours were removed, its weight determined and the percentage of breast cancer stem cell marker (EpCAM^+/CD44^+/CD24^−) positive cells in the treatment groups and various control groups was studied via flow cytometray.\nMCF-7/ADR tumours ([…]) were treated 3 times in a week with 1 nmol PEG-chimera+5 mg/kg doxorubicin. Single cell suspension was prepared for flow cytometry (n=8). Remarks"}, "[2]": {"test_system": "PLC/PRF/5 hepatocellular carcinoma cell line", "assay": "Tumoursphere formation in 96-well, PLC/PRF/5", "type": "cell-based, human"}, "[3]": {"test_system": "MCF7/ADR cells", "assay": "Tumourigenicity ex vivo: treated MCF7/ADR cells xenotransplanted, extreme limiting dilution", "type": "in vivo, NOD/SCID mice", "conditions": "20 nM chimera, 300 nM Dox, Day 40", "procedure": "The inventor hypothesized that the CSC-targeted delivery of survivin siRNA would make CSC sensitive to Dox. Indeed, after treatment (without transfection reagent) with 20 nM chimera plus 300 nM Dox for 72 h, there was a ˜80% reduction in the number of mammospheres in both the first and second round of tumoursphere assays (not shown), indicating a significant portion of cancer stem cells had been eliminated. The inventor further confirmed the effect of the chimera plus Dox on cancer stem cells' tumourigenicity by xenotransplanting treated cells into the 4th inguinal mammary fat pads of NOD/SCID mice coupled with an extreme limiting dilution analysis to assess CSC frequency (at Day 40 alter implantation) (Table 6)."}, "[4]": {"test_system": "HT29 spheres", "assay": "FACS analysis of CSC markers in treated HT29 spheres", "type": "cell-based, human", "conditions": "HT29 spheres after treatment", "text": "Salinomycin (Sal), known to target CSC^23, was used as a positive control to validate our assays."}, "[5]": {"test_system": "HT29 colon cancer cells", "assay": "Tumoursphere formation in 96-well, HT29", "type": "cell-based, human", "conditions": "5 days; for Number of wells with sphere: HT29, 3 μM Dox equivalent", "procedure": "Under non-adherent and serum-free conditions, only the cancer stem cells (CSCs) and progenitor cells survive and undergo self-renewal as well as proliferate to form tumour spheres. The inventor studied the ability of aptamer-Dox to target cancer stem cells by plating various cell doses of single-cell suspension of HT29 colon cancer cells in ultra-low attachment 96-wells in the presence of 3 μM of free Dox, 3 μM equivalent Dox conjugated with aptamer, 3 μM Dox-negative control aptamer or vehicle control for 5 days. Tumour spheres (with a size >50 μm) were enumerated."}, "[6]": {"test_system": "HT29 cell populations", "assay": "Extreme limiting dilution/xenotransplantation assay (ELDA) of treated HT29 tumours", "type": "in vivo, NOD/SCID mice", "conditions": "9 weeks after inoculation", "text": "The inventor first studied whether the aptamer-Dox conjugate could efficiently target tumour in vivo via live animal imaging with an on-site IVIS Lumina II imaging station. […] The ability of aptamer-Dox to target CSC was further tested in vivo using the gold standard extreme limiting dilution/xenotransplantation assay (ELDA). To this end, the inventor injected 1×10^6 HT29 cells s.c. into NOD/SCID mice. When tumours reached a size of 3 mm, the mice were randomized and treated serially for 3 days at a daily dose of 5 mg/Kg of either free Dox, EpCAM aptamer-Dox or control aptamer-Dox via tail vein injection. Mice were sacrificed one week after the last treatment. […] The experiment as repeated and single cell suspensions prepared from the treated tumours (as in FIG. 14) and ELDA (Extreme limiting dilution analysis) performed to assess the effect on CSC frequency."}, "[7]": {"test_system": "HT29 cells", "assay": "Tumour formation ex vivo: in vitro treated HT29 cells xenotransplanted", "design": "species or system NOD/SCID mice", "conditions": "cells treated 3 μM, 5 days, Day 50", "text": "As sphere formation is a surrogate assay for in vivo tumourigenicity, the inventor examined whether the in vitro treated cells could generate tumours upon xenotransplantation. […] As shown in FIG. 12 and Table 4, free Dox-treated cells formed tumours in every mouse studied but no tumour was detected in mice cells (Table 4) at Day 50 after receiving aptamer-Dox-treated tumour implantation."}, "[8]": {"test_system": "MCF7/ADR tumour", "assay": "Xenotransplantation-LDA of in vivo treated MCF7/ADR tumours", "conditions": "1 nmole chimera, 5 mg/kg Dox, Day 50", "method": "An orthotopic breast cancer model was established by implanting 3×10^6 MCF7/ADR cells (mixed with Matrigel) per site in NOD-SCID mice. When tumours reached a volume of ˜200 mm^3, we started treatment via tail vein injection. The mice (n=5) were treated at Day 1, 3, 5, with i.v. (bolus) injection of 1 nmole of EpCAM aptamer-siRNA chimera; and Day 2, 4, 6, with i.v. (bolus) injection of 5 mg/kg doxorubicin. The animals were euthanized on Day 10 and tumours harvested and subjected to xenotransplantation and in vivo extreme limiting dilution analysis."}},
  "data": [
    {"smiles": "COc1cccc2c1C(=O)c1c(O)c3c(c(O)c1C2=O)C[C@@](O)(C(=O)CO)C[C@@H]3O[C@H]1C[C@H](N)[C@H](O)[C@H](C)O1", "note": "[Free Dox, doxorubicin]", "values": [
      {"measurement": "Percentage EpCAM+/CD44+/CD24−", "setting": "[1]", "value": 11.6},
      {"measurement": "Number of wells with sphere", "setting": "[2]; 1 cell seeded/well", "value": "0/10"},
      {"measurement": "Number of wells with sphere", "setting": "[2]; 10 cells seeded/well", "value": "10/10"},
      {"measurement": "Number of wells with sphere", "setting": "[2]; 100 cells seeded/well", "value": "10/10"},
      {"measurement": "Number of wells with sphere", "setting": "[2]; 200 cells seeded/well", "value": "10/10"},
      {"measurement": "No. of tumours/no. of mice", "setting": "[3]; 0.5 × 10^6 cells injected", "value": "0/5"},
      {"measurement": "No. of tumours/no. of mice", "setting": "[3]; 1 × 10^6 cells injected", "value": "1/5"},
      {"measurement": "No. of tumours/no. of mice", "setting": "[3]; 3 × 10^6 cells injected", "value": "3/5"},
      {"measurement": "No. of tumours/no. of mice", "setting": "[3]; 5 × 10^6 cells injected", "value": "5/5"},
      {"measurement": "EpCAM^high/CD44^high/CD24^high cells", "setting": "[4]", "value": 91, "unit": "%"},
      {"measurement": "effect on HT29 tumour sphere formation (in words)", "setting": "[5]; 3 μM Dox", "value": "no effect"},
      {"measurement": "Number of wells with sphere", "setting": "[5]; 1 cell seeded/well", "value": "0/10"},
      {"measurement": "Number of wells with sphere", "setting": "[5]; 10 cells seeded/well", "value": "10/10"},
      {"measurement": "Number of wells with sphere", "setting": "[5]; 100 cells seeded/well", "value": "10/10"},
      {"measurement": "Number of wells with sphere", "setting": "[5]; 200 cells seeded/well", "value": "10/10"},
      {"measurement": "No. tumour/No. mice", "setting": "[6]; 1 × 10^4 cells injected", "value": "0/6"},
      {"measurement": "No. tumour/No. mice", "setting": "[6]; 1 × 10^5 cells injected", "value": "6/6"},
      {"measurement": "No. tumour/No. mice", "setting": "[6]; 1 × 10^6 cells injected", "value": "6/6"},
      {"measurement": "No. tumour/No. mice", "setting": "[7]; 1 × 10^5 cells injected", "value": "5/5"},
      {"measurement": "No. tumour/No. mice", "setting": "[7]; 1 × 10^6 cells injected", "value": "5/5"},
      {"measurement": "No. of tumours/no. of mice", "setting": "[8]; 0.5 × 10^6 cells injected", "value": "0/4"},
      {"measurement": "No. of tumours/no. of mice", "setting": "[8]; 1 × 10^6 cells injected", "value": "1/4"},
      {"measurement": "No. of tumours/no. of mice", "setting": "[8]; 3 × 10^6 cells injected", "value": "3/4"},
      {"measurement": "No. of tumours/no. of mice", "setting": "[8]; 5 × 10^6 cells injected", "value": "4/4"}
    ]}
  ]
}
